Patent US10435361B2, “Kinase inhibitors” (Topivert Pharma Limited, priority 2013, dated 2019)
Where two headings read alike, the source gives them in different places.

Assays:
d-U937 cells = assay: LPS-induced TNFα/IL-8 release in d-U937 cells; assay type: cell-based; details: Homo sapiens, dU937, assay (aa)
Protocol: U937 cells, a human monocytic cell line, are differentiated to macrophage-type cells by incubation with phorbol myristate acetate (PMA; 100 ng/mL) for 48 to 72 hr. Cells are pre-incubated with final concentrations of test compound for 2 hr and are then stimulated with 0.1 μg/mL of LPS (from E. Coli: 0111:B4, Sigma) for 4 hr. The supernatant is collected for determination of TNFα and IL-8 concentrations by sandwich ELISA (Duo-set, R&D systems). […] The relative 50% effective concentration (REC50) is determined from the resultant concentration-response curve. The inhibition of IL-8 production is calculated at each concentration of test compound by comparison with vehicle control.

PBMCs [1] = assay: LPS-induced TNFα/IL-8 release in PBMC cells; assay type: cell-based; details: Homo sapiens, assay (b), read-out: IC50 Values for Inhibition of Cytokine Release PBMCs IL-8
How it was run: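 Healthy-donor PBMCs isolated by density gradient were pretreated with compound for 2 h, then stimulated with 1 ng/mL LPS (E. coli 0111:B4) for 24 h at 37° C., 5% CO2. IL-8 and TNFα in supernatants measured by sandwich ELISA.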

PBMCs [2] = assay: IL-2 and IFN gamma release in CD3/CD28 stimulated PBMC cells; assay type: cell-based; details: Homo sapiens, assay (c)
How it was run: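 Healthy-donor PBMCs, density-gradient isolated, stimulated on plates pre-coated with anti-CD3 (0.3 μg/mL) and anti-CD28 (3 μg/mL) antibodies, with compound, for 3 days under standard culture conditions. IC50 derived from the dose-response curve.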

HT29 cells = assay: IL-1β-induced IL-8 release in HT29 cells; assay type: cell-based; details: Homo sapiens, HT-29, assay (d), read-out: IC50 Values for Inhibition of Cytokine Release HT29 cells IL-8
Protocol: HT29 cells, a human colon adenocarcinoma cell line, are plated in a 96 well plate (24 hr) and pre-treated with compounds at the desired concentration for 2 hours before addition of 5 ng/mL of IL-1β (Abcam) for 24 hours. Supernatants are harvested for IL-8 quantification by Sandwich ELISA (Duo-set, R&D System). The IC50 is determined from the dose response curve.

PBMCs [3] = assay: Cell mitosis assay in PBMCs; assay type: cell-based; details: Homo sapiens, PBMC, 5 μg/mL
How it was run: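 Human PBMCs from healthy donors, density-gradient isolated, stimulated with 2% PHA 48 h, then exposed 20 h to test compounds; demecolcine 0.1 μg/mL added 2 h before harvest. Fixed/permeabilised cells stained for phospho-histone H3 and propidium iodide; mitotic lymphocytes counted by flow cytometry.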

BDF1 mice = assay: TNBS-induced colitis in mice; assay type: in vivo; details: conducted over 2 days; vehicle corn oil/transcutol/maisine/cremophor ELP
Protocol: Non-fasted, 10-12 week old, male BDF1 mice are dosed by oral gavage twice daily with either vehicle (5 mL/kg), reference item (Budesonide 2.5 mg/kg) or test compound (1 or 5 mg/kg) one day before (Day −1) stimulation of the inflammatory response by treatment with 2,4,6-trinitrobenzenesulphonic acid (TNBS) (15 mg/mL in 50% ethanol/50% saline). On Day 0 of the study TNBS (200 μL) is administered intra-colonically via a plastic catheter with BID dosing of the vehicle, reference or test compound continuing for 2 or 4 days. During the study, animals are weighed every day and stool observations are made and recorded as a score, based on stool consistency. At the time of sacrifice on Day 2 (or Day 4), the large intestine is removed and the length and weight recorded. Sections of the colon are taken for histopathology scoring to determine disease severity.

SCID animals = assay: Adoptive transfer in mice (CD45RBhigh cells into SCID animals); assay type: in vivo; details: end of the study
Protocol: On Study day 0, female Balb/C mice are terminated and spleens obtained for CD45RB^high cell isolation (Using SCID IBD cell Separation protocol). Approximately 4×10^5 cells/mL CD45RB^high cells are then injected intraperitoneally (100 μL/mouse) into female SCID animals. On study day 14, mice are weighed and randomized into treatment groups based on body weight. On Day 14, compounds are administered BID, via oral gavage, in a peanut oil vehicle at the dose levels outlined below in Tables 6a and 6b and a dose volume of 5 mL/kg. Treatment continues until study day 42, at which point the animals are necropsied 4 hours after the morning administration. The colon length and weight are recorded and used as a secondary endpoint in the study as a measurement of colon oedema. The colon is then divided into six cross-sections, four of which are used for histopathology scoring (primary endpoint) and two are homogenised for cytokine analysis. Data shown is the % inhibition of the induction window between naïve animals and vehicle animals, where higher inhibition implies closer to the non-diseased, naïve, phenotype.

[4] = Plasma pharmacokinetics and total colon tissue distribution in mice, single oral administration; assay type: in vivo, C57BL/6 mice; details: male, C57BL/6, mouse, 5 mg/kg, read-out: Median plasma concentration
Protocol: (§1) Studies were conducted by Sai Life Sciences (Hinjewadi, Pune, India) to investigate the plasma pharmacokinetics and total colon tissue distribution of compounds of the invention. In particular, pharmacokinetic studies were carried out in: • male C57BL/6 mice, following a single oral administration; and • male Wistar rats following a single intravenous or oral administration.

[5] = Plasma pharmacokinetics in rats, single intravenous or oral administration; assay type: in vivo; details: male, Wistar, rat; for clearance: rats, intravenous 0.25 mg/kg
Protocol: as §1

Lewis rats = assay: Endotoxin-induced uveitis in rats; assay type: in vivo; details: rats treated with intravitreal endotoxin LPS
Protocol: Male, Lewis rats (6-8 weeks old, Charles River UK Limited) are housed in cages of 3 at 19-21° C. with a 12 h light/dark cycle (07:00/19:00) and fed a standard diet of rodent chow and water ad libitum. Non-fasted rats are weighed, individually identified on the tail with a permanent marker, and receive a single intravitreal administration into the right vitreous humor (5 μL dose volume) of 100 ng/animal of LPS (Escherichia coli 0111:B4 prepared in PBS, Sigma Aldrich, UK) using a 32-gauge needle. Untreated rats are injected with PBS. Test compound, dexamethasone (Dex) or vehicle (20% hydroxypropyl-β-cyclodextrin, 0.1% HPMC, 0.01% Benzalkonium chloride, 0.05% EDTA, 0.7% NaCl in deionised water) are administered by the topical route onto the right eye (10 μL) of animals 30 minutes prior to LPS, at the time of LPS administration, and 1, 2 and 4 hours post LPS administration. Before administration, the solution or suspension to be administered is agitated for 5 minutes to ensure a uniform suspension. 6 hours after LPS dosing, animals are euthanized by overdose with pentobarbitone (i.v.). Following euthanasia, the right eye of each animal is enucleated and dissected into front (anterior) and back (posterior) sections around the lens. Each section is weighed and homogenised in 500 μL of sterile phosphate buffered saline followed by 20 minutes centrifugation at 12000 rpm at 4° C. The resulting supernatant is divided into 3 aliquots and stored at −80° C. until subsequent cytokine analysis by R&D DuoSet ELISA.

[6] = system: Salmonella typhimurium TA98; assay: Bacterial reverse mutation screen, strain TA98; assay type: cell-based; details: presence or absence of S-9 mix; up to 1000 μg/plate analysable
Protocol: (§2) Studies were conducted by Sequani (Ledbury, Herefordshire, UK) to assess compounds of the invention for their ability to induce mutations in two histidine dependent auxotrophic mutants of Salmonella typhimurium, strains TA98 and TA100 in vitro.
(§3) The mutation screen was conducted using the plate incorporation method and was performed in both the presence and absence of S-9 mix (a liver post-mitochondrial fraction derived from the livers of Aroclor 1254 treated rats). The bacteria were exposed to test compounds dissolved in dimethylsulphoxide, which solvent was also used as the negative control. The dose levels used were 0.32, 1.6, 8, 40, 200, 1000 or 5000 μg/plate.
(§4) Precipitation was also noted in both strains at 1000 μg/plate in the presence and absence of S-9 mix.

[7] = system: Salmonella typhimurium TA100; assay: Bacterial reverse mutation screen, strain TA100; assay type: cell-based; details: presence or absence of S-9 mix; up to 1000 μg/plate analysable
Protocol: as §2, §3, §4

[8] = Hydrolytic stability study (DMSO/water 3:1, 60° C.); assay type: physicochemical
Protocol: Chemical stability of compounds of the invention was assessed in a mixture of DMSO and water (3:1) at a test compound concentration of 1 mg/mL
Agilent, Waters X-Select C18, 2.5 μm, 4.6×30 mm column, 4 min method, 5-95%
MeCN/water (0.1% formic acid).
Column Oven Temperature 40° C.
Sample Preparation • A 1.0 mg sample of test compound was dissolved in 750 μL of DMSO. Water (250 μL) was added slowly, ensuring no precipitation occurred.
Recording Stability • A 50 μL aliquot of the test solution was removed and analysed in duplicate by 5 μL HPLC injections. The peak area for the test compound was recorded following manual integration of the corresponding UV trace. • The test solution was heated to 60° C., with stirring, and 50 μL aliquots removed for HPLC analysis at 5 and 24 h timepoints.

[9] = read-out: IC50 Values for Inhibition of Cytokine Release PBMCs IFNγ
[10] = read-out: IC50 Values for Inhibition of Cytokine Release PBMCs IL-2
[11] = po, 5 mg/kg, read-out: Median plasma concentration

## COCCOCCOCCNC(=O)c1cc(Nc2cc(Oc3ccc(NC(=O)Nc4cc(C(C)(C)C)cc(NS(C)(=O)=O)c4OC)c4ccccc34)ccn2)cc(OC)c1 [Example 3, 3-((4-((4-(3-(5-(tert-Butyl)-2-methoxy-3-(methylsulfonamido)phenyl)ureido)naphthalen-1-yl)oxy)pyridin-2-yl)amino)-5-methoxy-N-(2-(2-(2-methoxyethoxy)ethoxy)ethyl)benzamide]
d-U937 cells; method: relative to 10 μg/mL BIRB796 (REC50), read-out: IC50 Values for Inhibition of Cytokine Release dU937 cells TNFα
  IC50: 0.4 nM
d-U937 cells; read-out: IC50 Values for Inhibition of Cytokine Release dU937 cells IL-8
  IC50: 1.3 nM
PBMCs [1]
  IC50: 1.2 nM
PBMCs [2]; [9]
  IC50: 9.6 nM
PBMCs [2]; [10]
  IC50: 190 nM
HT29 cells
  IC50: 8.1 nM
PBMCs [3]
  inhibition at 5 µg/mL: 31.7%
BDF1 mice
  activity in TNBS-induced colitis (histopathology analysis): displayed substantial activity
SCID animals
  activity in adoptive transfer model (ratios of colon weight to length): displayed significant activity
[4]
  concentration at 1 h: 0 ng/mL
  concentration at 2 h: 0 ng/mL
  concentration at 4 h: 0 ng/mL
  concentration at 8 h: 0 ng/mL
  concentration at 12 h: 0 ng/mL
  concentration at 24 h: 0 ng/mL
[5]; [11]
  concentration at 0.5 h: 0 ng/mL
  concentration at 1 h: 0 ng/mL
  concentration at 2 h: 0 ng/mL
  concentration at 4 h: 0 ng/mL
  concentration at 6 h: 0 ng/mL
  concentration at 8 h: 0 ng/mL
  concentration at 12 h: 0 ng/mL
  concentration at 24 h: 0 ng/mL
[5]
  clearance: 5.1 mL/min/kg

## CNC(=O)c1cc(C(C)(C)C)cc(NC(=O)Nc2ccc(Oc3ccnc(Nc4cc(OC)cc(OCCOCCOCCOC)c4)c3)c3ccccc23)c1OC [Example 29, 5-(tert-Butyl)-2-methoxy-3-(3-(4-((2-((3-methoxy-5-(2-(2-(2-methoxyethoxy)ethoxy)-ethoxy)phenyl)amino)pyridin-4-yl)oxy)naphthalen-1-yl)ureido)-N-methylbenzamide]
PBMCs [1]
  IC50: 2.3 nM
PBMCs [2]; [9]
  IC50: 3.5 nM
PBMCs [2]; [10]
  IC50: 51.2 nM
HT29 cells
  IC50: 0.6 nM
PBMCs [3]
  inhibition at 5 µg/mL: 34.6%
Lewis rats
  cytokine levels in the anterior and posterior segments of the eyes: significantly reduced
[5]
  clearance: 14.2 mL/min/kg

## COc1cc(Nc2cc(Oc3ccc(NC(=O)Nc4cc(C(C)(C)C)cc(NS(C)(=O)=O)c4OC)c4ccccc34)ccn2)cc(C(=O)NCCCN2CCOCC2)c1 [Example 66, 3-((4-((4-(3-(5-(tert-Butyl)-2-methoxy-3-(methylsulfonamido)phenyl)ureido)naphthalen-1-yl)oxy)pyridin-2-yl)amino)-5-methoxy-N-(3-morpholinopropyl)benzamide]
PBMCs [1]
  IC50: 1.9 nM
PBMCs [2]; [9]
  IC50: 20.2 nM
PBMCs [2]; [10]
  IC50: 49.2 nM
HT29 cells
  IC50: 16.4 nM
PBMCs [3]
  inhibition at 5 µg/mL: 66.6%
Lewis rats
  cytokine levels in the anterior and posterior segments of the eyes: significantly reduced

## COc1c(NC(=O)Nc2ccc(Oc3ccnc(Nc4ccccc4)c3)c3ccccc23)cc(C(C)(C)C)cc1C(=O)NC1COC1 [Example 75, 5-(tert-Butyl)-2-methoxy-N-(oxetan-3-yl)-3-(3-(4-((2-(phenylamino)pyridin-4-yl)ox)-naphthalen-1-yl)ureido)benzamide]
PBMCs [1]
  IC50: 5 nM
PBMCs [2]; [9]
  IC50: 14.9 nM
PBMCs [2]; [10]
  IC50: 56.8 nM
PBMCs [3]
  inhibition at 5 µg/mL: 42.6%
BDF1 mice
  activity in TNBS-induced colitis (histopathology analysis): displayed substantial activity
Lewis rats
  cytokine levels in the anterior and posterior segments of the eyes: significantly reduced
[5]
  clearance: 4.4 mL/min/kg
[6]
  increases in revertant colonies, strain TA98: no dose-related or statistically significant increases in revertant colonies
[7]
  increases in revertant colonies, strain TA100: no dose-related or statistically significant increases in revertant colonies
[8]; DMSO/water 3:1, 0 min
  % Parent Remaining: 100%
[8]; DMSO/water 3:1, 60° C., 1440 min
  % Parent Remaining: 99%
